Key:
[1] = compound: C1CSC2=C(C(=O)N1)SC3=C2C=C(C=C3)O [kb NB 142-70] + CC1(C)CCC(c2ccc(Cl)cc2)=C(CN2CCN(c3ccc(C(=O)NS(=O)(=O)c4ccc(N[C@H](CCN5CCOCC5)CSc5ccccc5)c(S(=O)(=O)C(F)(F)F)c4)cc3)CC2)C1 [Navitoclax] (partner 0.5 µM); assay: relative viability (nuclei count vs DMSO), 5 days (fraction); higher = more cells survive
Procedure, shortened: (§1)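 Relative viability is defined as nuclei in treated wells over nuclei in vehicle wells. Duplicate plates were run and medians reported. Lung cancer cell lines in 1536-well plates were dosed by pin tool one day after seeding, with one drug or with a fixed anchor-drug dose plus five library-drug doses (not always all listed) in √10 steps, and nuclei were counted after 5 days.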

[2] = compound: NCC(=O)Nc1ccc(-n2nc(C(F)(F)F)cc2-c2ccc3c(ccc4ccccc43)c2)cc1 + COc1cc2c(Oc3ccc(NC(=O)C4(C(=O)Nc5ccc(F)cc5)CC4)cc3F)ccnc2cc1OCCCN1CCOCC1 [Foretinib] (partner 0.25 µM); assay: as above
Procedure, shortened: as §1

Cell Line	relative viability ([1]; first compound 0.1 µM)	relative viability ([1]; first compound 1 µM)	relative viability ([1]; first compound 3.162 µM)	relative viability ([2]; first compound 0.02 µM)	relative viability ([2]; first compound 0.06325 µM)	relative viability ([2]; first compound 0.2 µM)	relative viability ([2]; first compound 0.6325 µM)	relative viability ([2]; first compound 2 µM)
NCI-H2085	1.18	1.05	0.738	1.02	1.05	1.07	0.812	1.1
NCI-H1793	0.45	0.455	0.24	0.622	0.661	0.562	0.6	0.92
LC-2-ad	0.537	0.473	0.262	0.93	0.998	0.891	0.954	0.984
COR-L 105	0.746	0.828	0.727	1.15	1.26	1.14	0.985	1.04
NCI-H1355	1.02	0.881	0.936	0.954	1.03	1.04	1.02	0.981
H3255	0.498	0.538	0.55	0.823	1.04	0.858	1.11	0.89
NCI-H1993	0.941	0.82	0.799	0.861	0.819	0.814	0.796	0.835
NCI-H1734	0.794	0.706	0.431	0.795	0.875	0.919	0.766	0.9
HOP-62	0.994	1.11	0.968	1.19	1.16	0.966	1.01	1.04
LOU-NH91	0.753	0.632	0.438	0.994	0.959	0.965	0.929	1.01
ChaGo-K-1	1.17	1.11	0.885	0.866	0.956	0.847	0.937	0.77
NCI-H2228	0.853	0.992	0.244	1.05	0.974	0.889	0.97	0.972
PC-14	0.977	1.06	0.96	1.03	1.09	0.942	0.98	0.944
NCI-H1437	1.05	1.13	1.02	1.26	1.31	1.25	1.28	1.22
NCI-H460	0.978	1.25	0.305	1.04	1.06	1.09	0.981	1.03
NCI-H1666	1.08	1.04	0.858	0.975	1.01	0.998	0.963	0.932
SW 900					1	0.863	0.855	1.04
NCI-H1651	1.07	1.03	0.39	0.758	0.823	0.805	0.789	0.803
NCI-H1755	0.996	1.01	1.05	0.928	0.882	0.947	0.921	0.905
NCI-H661				0.985	0.985	1.04	0.974	1.07

Cell Line	relative viability ([1]; first compound 0.1 µM)	relative viability ([1]; first compound 1 µM)	relative viability ([1]; first compound 3.162 µM)	relative viability ([2]; first compound 0.02 µM)	relative viability ([2]; first compound 0.06325 µM)	relative viability ([2]; first compound 0.2 µM)	relative viability ([2]; first compound 0.6325 µM)	relative viability ([2]; first compound 2 µM)
HARA	1.15	1.11	1.08	0.976	0.991	0.889	0.961	0.974
NCI-H596	1	0.982	0.866	0.956	0.796	0.724	0.9	0.885
NCI-H1563				0.958	1.04	0.94	0.984	0.971
NCI-H23	0.775	0.735	0.331	1.05	0.998	1	0.975	0.987
A549	1.27	1.08	0.142	0.923	0.956	0.917	1.01	0.971
LCLC-97TM1	0.457	0.29	0.307	0.87	0.999	0.924	0.945	0.96
EPLC-272H	1.26	1.13	0.584	0.686	0.688	0.752	0.581	0.79
NCI-H2342				1.05	1.16	1.18	0.97	1.24
NCI-H1915	0.793	0.739	0.519	1.12	1.12	1.09	1.06	1.11
NCI-H2405	0.966	0.863	0.679	1.12	1.07	1.13	1.03	1.11
NCI-H322M	1.2	1.15	1.11	1.2	0.945	0.97	0.912	1.04
NCI-H2170	0.564	0.674	0.432	0.995	0.975	1.04	0.985	1.02
NCI-H1623				1.02	0.935	0.77	0.84	0.923
NCI-H1395	1.26	1.23	0.826	1.12	1.01	1.07	1	0.981
IA-LM	0.807	0.843	0.651	1.26	1.05	1.14	1.01	1.19
NCI-H358				0.755	0.721	0.747	0.683	0.816
NCI-H838	1.19	1.14	1	1.1	1.02	1.12	1	0.969
CAL-12T	1.34	1.16	1.08	1.28	1.29	1.15	1.14	1.12
EBC-1	0.415	0.322	0.22	0.0952	0.0845	0.105	0.0991	0.0847
